Experiments:
[1] = test system: A549 Human lung carcinoma cells; experiment: A549 Human Lung Cell Assay (transfected, dexamethasone challenge, Luc-assay); assay type: cell-based; conditions: Dexamathasone challenge, 24 h
Protocol: A549 Human Lung Cell Assay
A549 Human lung carcinoma cells were grown in F-12K Nutrient Mixture containing 10% (v/v) fetal bovine serum (FBS; Invitrogen), 2 mM glutamine and 0.15% sodium dicarbonate (Invitrogen).
A549 cells were split 1 to 3 in 175 cm tissue culture flask. The cells were incubated at 37° C. in CO2 incubator until the cells were 95% confluent (typically 24-30 hours).
The following solutions were prepared in sterile tubes: (a) Solution A: 1.5 μg/ml of DNA in 8.5 ml OPTI-MEM I Reduced Serum Medium. (GIBCO cat# 31985) and (b) Solution B: 6 μl/ml of DMRIE-C Reagent into […] OPTI-MEM I. The two solutions were combined and mixed gently, then incubated at room temperature for 40 minutes.
The A549 cells prepared above were washed with […] of OPTI-MEM I. The medium was removed and 17 ml of the lipid-DNA complex solution was overlayed onto cells. The cells ere then incubated for 16 h at 37° C. in CO2 incubator. The DNA-containing medium was removed and 30 ml of growth medium was added. (5% Charcoal treated FBS) After 5-6 h, the cells were seeded in a 96 well plate and the cells incubated overnight at 37° C. in CO2 incubator.
To each well was then added 5 μl of test compounds and the cells incubated at 37° C. for 10 min. 5 μL of Dexamathasone (CAS [50-02-2]), was then added to each well for challenger and the cells incubated at 37° C. in CO2 incubator for 24 h. 100 μl of Luc-assay buffer was then added into each cell well and the cells incubated for 30 min at room temperature. A 150 μL sample from each well was then transferred into a DYNEX Microlitel plate and read on Top-counter.

[2] = test system: T47D human breast cancer cells; experiment: T47D Human Breast Cancer Cells Assay (alkaline phosphatase); assay type: cell-based; conditions: 24 h with test compound, luminescence
Protocol: T47D Human Breast Cancer Cells Assay
T47D human breast cancer cells were grown in RPMI medium without phenol red (Invitrogen) containing 10% (v/v) heat-inactivated fetal bovine serum (FBS; Hyclone), 1% (v/v) penicillin-streptomycin (Invitrogen), 1% (w/v) glutamine (Invitrogen), and […] insulin (Sigma). Incubation conditions were 37° C. in a humidified 5% (v/v) carbon dioxide environment.
The cells were plated in 96-well tissue culture plates at 10,000 cells per well in assay medium [RPMI medium without phenol red (Invitrogen) containing 5% (v/v) charcoal-treated FBS (Hyclone) and 1% (v/v) penicillin-streptomycin (Invitrogen)]. Two days later, the medium was decanted and test compound or control were added at a final concentration of 0.1% (v/v) dimethyl sulfoxide in fresh assay medium. Twenty-four hours later, an alkaline phosphatase assay was performed using a SEAP kit (BD Biosciences Clontech, Palo Alto, Calif.). Briefly, the medium was decanted and the cells were fixed for 30 minutes at room temperature with 5% (v/v) formalin (Sigma). The cells were washed once with room temperature Hank's buffered saline solution (Invitrogen). Equal volumes (0.05 mL) of 1× Dilution Buffer, Assay Buffer and 1:20 substrate/enhancer mixture were then added. After 1 hour incubation at room temperature in the dark, the lysate was transferred to a white 96-well plate (Dynex) and luminescence was read using a LuminoSkan Ascent (Thermo Electron, Woburn, Mass.).

| IC50 [1] [µM] | IC50 [2] [µM] | Compound |
| --- | --- | --- |
| 0.0658 | 0.0195 | CN(C)c1ccc(C2C[C@@]3(C)[C@@H](CC[C@@]3(O)C#Cc3ccc(C(C)(C)C)cc3)[C@@H]3OCC4=CC(=O)CCC4=C23)cc1 (stereo in doubt) [Compound 10, 17-(4-tert-Butyl-phenylethynyl)-11-(4-dimethylamino-phenyl)-17-hydroxy-13-methyl-1,2,8,11,12,13,14,15,16,17-decahydro-6H-7-oxa-cyclopenta[a]phenanthren-3-one] |
| 0.0555 | 0.0186 | CN(C)c1ccc(C2C[C@@]3(C)[C@@H](CC[C@@]3(O)C#CC(F)(F)F)[C@@H]3OCC4=CC(=O)CCC4=C23)cc1 (stereo in doubt) [Compound 13, 11-(4-Dimethylamino-phenyl)-17-hydroxy-13-methyl-17-trifluoroprop-1-ynyl-1,2,8,11,12,13,14,15,16,17-decahydro-6H-7-oxa-cyclopenta[a]phenanthren-3-one] |
| 0.175 | 0.034 | CN(C)c1ccc(C2C[C@@]3(C)[C@@H](CC[C@@]3(O)C#Cc3ccccn3)[C@@H]3OCC4=CC(=O)CCC4=C23)cc1 (stereo in doubt) [Compound 26, 11-(4-Dimethylamino-phenyl)-17-hydroxy-13-methyl-17-pyridin-2-ylethynyl-1,2,8,11,12,13,14,15,16,17-decahydro-6H-7-oxa-cyclopenta[a]phenanthren-3-one] |
| 0.342 | 0.021 | CN(C)c1ccc(C2C[C@@]3(C)[C@@H](CC[C@@]3(O)C#Cc3cccnc3)[C@@H]3OCC4=CC(=O)CCC4=C23)cc1 (stereo in doubt) [Compound 27, 11-(4-Dimethylamino-phenyl)-17-hydroxy-13-methyl-17-pyridin-3-ylethynyl-1,2,8,11,12,13,14,15,16,17-decahydro-6H-7-oxa-cyclopenta[a]phenanthren-3-one] |
| 0.246 | 0.039 | CN(C)c1ccc(C2C[C@@]3(C)[C@@H](CC[C@@]3(O)C#Cc3ccncc3)[C@@H]3OCC4=CC(=O)CCC4=C23)cc1 (stereo in doubt) [Compound 28, 11-(4-Dimethylamino-phenyl)-17-hydroxy-13-methyl-17-pyridin-4-ylethynyl-1,2,8,11,12,13,14,15,16,17-decahydro-6H-7-oxa-cyclopenta[a]phenanthren-3-one] |
| 0.315 | 0.6 | COCC#C[C@]1(O)CC[C@H]2[C@@H]3OCC4=CC(=O)CCC4=C3C(c3ccc(N(C)C)cc3)C[C@@]21C (stereo in doubt) [Compound 30, 11-(4-Dimethylamino-phenyl)-17-hydroxy-17-(3-methoxy-prop-1-ynyl)-13-methyl-1,2,8,11,12,13,14,15,16,17-decahydro-6H-7-oxa-cyclopenta[a]phenanthren-3-one] |
| 0.111 | 0.000748 | CN(C)c1ccc([C@H]2C[C@@]3(C)[C@@H](CC[C@@]3(O)C#Cc3ccc(C(F)(F)F)cc3)[C@@H]3OCC4=CC(=O)CCC4=C32)cc1 [Compound 9] |
| 0.0313 | 0.000943 | CN(C)c1ccc([C@H]2C[C@@]3(C)[C@@H](CC[C@@]3(O)C#Cc3ccc(Br)cc3)[C@@H]3OCC4=CC(=O)CCC4=C32)cc1 [Compound 11, 17-(4-Bromo-phenylethynyl)-11-(4-dimethylamino-phenyl)-17-hydroxy-13-methyl-1,2,8,11,12,13,14,15,16,17-decahydro-6H-7-oxa-cyclopenta[a]phenanthren-3-one] |
| 0.0435 | 0.000613 | CN(C)c1ccc([C@H]2C[C@@]3(C)[C@@H](CC[C@@]3(O)C#Cc3ccc(Cl)cc3)[C@@H]3OCC4=CC(=O)CCC4=C32)cc1 [Compound 12, 17-(4-Chloro-phenylethynyl)-11-(4-dimethylamino-phenyl)-17-hydroxy-13-methyl-1,2,8,11,12,13,14,15,16,17-decahydro-6H-7-oxa-cyclopenta[a]phenanthren-3-one] |
| 0.0413 | 0.00367 | CN(C)c1ccc([C@H]2C[C@@]3(C)[C@@H](CC[C@@]3(O)C#Cc3ccc(C#N)cc3)[C@@H]3OCC4=CC(=O)CCC4=C32)cc1 [Compound 14, 4-[11-(4-Dimethylamino-phenyl)-17-hydroxy-13-methyl-3-oxo-1,2,3,6,8,11,12,13,14,15,16,17-dodecahydro-7-oxa-cyclopenta[a]phenanthren-17-ylethynyl]-benzonitrile] |

Second part, the compound before the results:

| Compound | IC50 [1] [µM] | IC50 [2] [µM] |
| --- | --- | --- |
| C#C[C@]1(O)CC[C@H]2[C@@H]3OCC4=CC(=O)CCC4=C3C(c3ccc(N(C)C)cc3)C[C@@]21C (stereo in doubt) [Compound 4, 11-(4-Dimethylamino-phenyl)-17-ethynyl-17-hydroxy-13-methyl-1,2,8,11,12,13,14,15,16,17-decahydro-6H-7-oxa-cyclopenta[a]phenanthren-3-one] | 0.204 | 0.019 |
| CN(C)c1ccc(C2C[C@@]3(C)[C@@H](CC[C@@]3(O)C#CC(C)(C)C)[C@@H]3OCC4=CC(=O)CCC4=C23)cc1 (stereo in doubt) [Compound 5, 11-(4-Dimethylamino-phenyl)-17-(3,3-dimethyl-but-1-ynyl)-17-hydroxy-13-methyl-1,2,8,11,12,13,14,15,16,17-decahydro-6H-7-oxa-cyclopenta[a]phenanthren-3-one] | 0.167 | 0.185 |
| CN(C)c1ccc(C2C[C@@]3(C)[C@@H](CC[C@@]3(O)C#CC(C)(C)O)[C@@H]3OCC4=CC(=O)CCC4=C23)cc1 (stereo in doubt) [Compound 6, 11-(4-Dimethylamino-phenyl)-17-hydroxy-17-(3-hydroxy-3-methyl-but-1-ynyl)-13-methyl-1,2,8,11,12,13,14,15,16,17-decahydro-6H-7-oxa-cyclopenta[a]phenanthren-3-one] | 0.559 | > 1 |
| CC#C[C@]1(O)CC[C@H]2[C@@H]3OCC4=CC(=O)CCC4=C3[C@@H](c3ccc(N(C)C)cc3)C[C@@]21C [Compound 1, 11-(4-Dimethylamino-phenyl)-17-hydroxy-13-methyl-17-prop-1-ynyl-1,2,8,11,12,13,14,15,16,17-decahydro-6H-7-oxa-cyclopenta[a]phenanthren-3-one] | 0.0865 | 0.00515 |
| CN(C)c1ccc([C@H]2C[C@@]3(C)[C@@H](CC[C@@]3(O)C#CC3CC3)[C@@H]3OCC4=CC(=O)CCC4=C32)cc1 [Compound 2, 17-Cyclopropylethynyl-11-(4-dimethylamino-phenyl)-17-hydroxy-13-methyl-1,2,8,11,12,13,14,15,16,17-decahydro-6H-7-oxa-cyclopenta[a]phenanthren-3-one] | 0.0334 | 0.00955 |
| CN(C)c1ccc([C@H]2C[C@@]3(C)[C@@H](CC[C@@]3(O)C#Cc3ccccc3)[C@@H]3OCC4=CC(=O)CCC4=C32)cc1 [Compound 3, 11-(4-Dimethylamino-phenyl)-17-hydroxy-13-methyl-17-phenylethynyl-1,2,8,11,12,13,14,15,16,17-decahydro-6H-7-oxa-cyclopenta[a]phenanthren-3-one] | 0.304 | 0.00138 |
| Cc1ccc(C#C[C@]2(O)CC[C@H]3[C@@H]4OCC5=CC(=O)CCC5=C4[C@@H](c4ccc(N(C)C)cc4)C[C@@]32C)cc1 [Compound 7, 11-(4-Dimethylamino-phenyl)-17-hydroxy-13-methyl-17-p-tolylethynyl-1,2,8,11,12,13,14,15,16,17-decahydro-6H-7-oxa-cyclopenta[a]phenanthren-3-one] | 0.0221 | 0.0016 |
| CN(C)c1ccc([C@H]2C[C@@]3(C)[C@@H](CC[C@@]3(O)C#Cc3ccc(F)cc3)[C@@H]3OCC4=CC(=O)CCC4=C32)cc1 [Compound 8, 11-(4-Dimethylamino-phenyl)-17-(4-fluoro-phenylethynyl)-17-hydroxy-13-methyl-1,2,8,11,12,13,14,15,16,17-decahydro-6H-7-oxa-cyclopenta[a]phenanthren-3-one] | 0.0376 | 0.000269 |

Reference: patent US7763648B2, “Oxa-steroids derivatives as selective progesterone receptor modulators” (Janssen Pharmaceutica N.V., priority 2006, dated 2010)
